Measurements as given in patent publication US20080009418A1, “Selective Inhibitors” (Alchemia LTD., priority 2004, published 2008).

Key:
Human Melanocortin (MC4) = biological target: T1, Human Melanocortin (MC4) (Homo sapiens, UniProt P32245); assay: Radioligand binding, human melanocortin MC4 membranes, FlashPlate, [125I]-NDP-αMSH; conditions: compound at 10 μM; [125I]-NDP-αMSH, FlashPlate
T1 construct: purchased Perkin Elmer Biosignal
Method in brief: (§1)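 Cloned human receptor membranes were coated onto FlashPlate wells and incubated with radioligand and compound (added from a 0.5 mM DMSO daughter plate) for 1 hour at room temperature in the dark. Scintillation counting gave percent inhibition, with DMSO defining total and reference ligand defining non-specific binding.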

[1] = biological target: T2, Human neuropeptide Y (NPY-Y1) (Homo sapiens, UniProt P25929); assay: Radioligand binding, human neuropeptide Y NPY-Y1 membranes, FlashPlate, [125I]-PYY; conditions: compound at 10 μM; [125I]-PYY, FlashPlate
T2 construct: purchased Perkin Elmer Biosignal
T2 sequence (P25929 1-384): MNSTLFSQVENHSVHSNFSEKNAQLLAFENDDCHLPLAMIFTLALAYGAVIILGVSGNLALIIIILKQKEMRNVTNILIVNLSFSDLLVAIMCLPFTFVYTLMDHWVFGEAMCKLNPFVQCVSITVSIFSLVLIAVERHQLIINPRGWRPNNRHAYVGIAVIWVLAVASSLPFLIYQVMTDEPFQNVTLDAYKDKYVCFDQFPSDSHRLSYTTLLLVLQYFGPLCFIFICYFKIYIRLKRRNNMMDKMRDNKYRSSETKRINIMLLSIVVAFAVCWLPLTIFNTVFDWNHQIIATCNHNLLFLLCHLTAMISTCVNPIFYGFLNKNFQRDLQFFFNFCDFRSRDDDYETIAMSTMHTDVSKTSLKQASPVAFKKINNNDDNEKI
Method in brief: as §1

[2] = biological target: T3, Human melanin-concentrating hormone (MCH1) (Homo sapiens, UniProt Q99705); assay: Radioligand binding, human melanin-concentrating hormone MCH1 membranes, FlashPlate, [125I]-S36057; conditions: compound at 10 μM; [125I]-S36057, FlashPlate
T3 construct: purchased Perkin Elmer Biosignal
Method in brief: as §1

Human opioid (ORL1) = biological target: T4, Human opioid (ORL1) (Homo sapiens, UniProt P41146); assay: Radioligand binding, human opioid ORL1 membranes, FlashPlate, [125I]-Nociceptin; conditions: compound at 10 μM; [125I]-Nociceptin, FlashPlate
T4 construct: purchased Perkin Elmer Biosignal
Method in brief: as §1

Human neurokinin (NK1) = biological target: T5, Human neurokinin (NK1) (Homo sapiens, UniProt P25103); assay: Radioligand binding, human neurokinin NK1 membranes, filtration, [125I]-Substance P; conditions: compound at 10 μM; [125I]-Substance P, filtration
T5 construct: purchased Perkin Elmer Biosignal
Method in brief: (§2)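 Filtration binding on cloned human receptor membranes (1 Unit/well), [125I]-Substance P for NK1 and [3H]-Diprenorphine for KOP, 1 h at room temperature. Filters PEI-presoaked, washed with cold 50 mM Tris-HCl pH 7.4, counted by scintillation; percent inhibition calculated, reference ligand defining non-specific binding.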

Human μ-opioid (MOP) = biological target: T6, Human μ-opioid (MOP) (Homo sapiens, UniProt P35372); assay: Radioligand binding, human μ-opioid (MOP) membranes, FlashPlate, [3H]-Naloxone; conditions: compound at 10 μM; [3H]-Naloxone, FlashPlate
T6 construct: purchased Perkin Elmer Biosignal
Method in brief: as §1

Mouse urotensin (mUR2) = biological target: T7, Mouse urotensin (mUR2) (Mus musculus, UniProt Q8VIH9); assay: Radioligand binding, mouse urotensin mUR2 membranes, FlashPlate, [125I]-Urotensin II; conditions: compound at 10 μM; [125I]-Urotensin II, FlashPlate
T7 construct: purchased Perkin Elmer Biosignal
T7 sequence (Q8VIH9 1-385): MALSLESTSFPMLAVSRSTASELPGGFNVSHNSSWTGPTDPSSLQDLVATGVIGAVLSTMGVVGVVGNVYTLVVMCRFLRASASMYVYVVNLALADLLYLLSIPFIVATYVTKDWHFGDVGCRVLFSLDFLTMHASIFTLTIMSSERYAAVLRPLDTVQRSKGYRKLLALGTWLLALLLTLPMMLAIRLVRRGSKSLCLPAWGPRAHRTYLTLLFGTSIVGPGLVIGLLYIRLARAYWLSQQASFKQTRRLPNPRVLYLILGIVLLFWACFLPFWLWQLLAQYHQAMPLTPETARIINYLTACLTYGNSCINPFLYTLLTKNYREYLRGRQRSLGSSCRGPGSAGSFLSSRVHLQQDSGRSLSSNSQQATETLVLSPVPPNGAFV
Method in brief: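 Cloned mouse urotensin (mUR2) receptor membranes from Perkin Elmer Biosignal were immobilized in FlashPlate microplates using a proprietary coating. Each well got 19.5 μl buffer, then 0.5 μl of DMSO, reference ligand, or compound. Adding 5 μl of [125I]-Urotensin II, diluted to 5× final concentration in binding buffer, started binding. Plates were sealed with TopSeal-A and incubated 1 hour at room temperature in the dark. Wells were counted for 30 seconds each on a TopCount after a 60-second delay, and percentage inhibition was calculated.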

Human melanocortin (MC5) = biological target: T8, Human melanocortin (MC5) (Homo sapiens, UniProt P33032); assay: Radioligand binding, human melanocortin MC5 membranes, FlashPlate, [125I]-NDP-αMSH; conditions: compound at 10 μM; [125I]-NDP-αMSH, FlashPlate
T8 construct: purchased Perkin Elmer Biosignal
Method in brief: as §1

Human δ-opioid (DOP) = biological target: T9, Human δ-opioid (DOP) (Homo sapiens, UniProt P41143); assay: Radioligand binding, human δ-opioid (DOP) membranes, FlashPlate, [3H]-Bremazocine; conditions: compound at 10 μM; [3H]-Bremazocine, FlashPlate
T9 construct: purchased Perkin Elmer Biosignal
Method in brief: as §1

Human Melanocortin (MC3) = biological target: T10, Human Melanocortin (MC3) (Homo sapiens, UniProt P41968); assay: Radioligand binding, human melanocortin MC3 membranes, FlashPlate, [125I]-NDP-αMSH; conditions: compound at 10 μM; [125I]-NDP-αMSH, FlashPlate
T10 construct: purchased Perkin Elmer Biosignal
Method in brief: as §1

Human κ-Opioid (KOP) = biological target: T11, Human κ-Opioid (KOP) (Homo sapiens, UniProt P41145); assay: Radioligand binding, human κ-opioid (KOP) membranes, filtration, [3H]-Diprenorphine; conditions: compound at 10 μM; [3H]-Diprenorphine, filtration
T11 construct: purchased Perkin Elmer Biosignal
Method in brief: as §2

T8 sequence (P33032 whole entry): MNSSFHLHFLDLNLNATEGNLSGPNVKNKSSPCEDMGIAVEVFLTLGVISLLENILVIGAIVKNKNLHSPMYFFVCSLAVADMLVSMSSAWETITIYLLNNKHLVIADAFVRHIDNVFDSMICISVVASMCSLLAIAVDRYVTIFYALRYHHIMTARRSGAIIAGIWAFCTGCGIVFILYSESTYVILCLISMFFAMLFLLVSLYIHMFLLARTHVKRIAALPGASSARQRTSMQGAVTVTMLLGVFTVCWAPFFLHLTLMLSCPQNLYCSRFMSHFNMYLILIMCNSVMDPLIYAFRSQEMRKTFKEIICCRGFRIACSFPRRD
T11 sequence (P41145 whole entry): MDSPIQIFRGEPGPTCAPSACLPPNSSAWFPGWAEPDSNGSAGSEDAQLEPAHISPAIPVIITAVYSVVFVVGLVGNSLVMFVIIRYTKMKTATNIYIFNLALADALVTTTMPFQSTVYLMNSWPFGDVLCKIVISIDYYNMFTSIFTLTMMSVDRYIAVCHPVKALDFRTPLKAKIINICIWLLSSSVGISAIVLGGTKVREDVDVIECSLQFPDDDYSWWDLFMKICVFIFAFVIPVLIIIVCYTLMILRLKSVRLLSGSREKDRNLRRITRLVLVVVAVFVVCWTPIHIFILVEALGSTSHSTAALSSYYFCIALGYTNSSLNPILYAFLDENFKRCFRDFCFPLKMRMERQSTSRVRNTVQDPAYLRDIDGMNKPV
T9 sequence (P41143 whole entry): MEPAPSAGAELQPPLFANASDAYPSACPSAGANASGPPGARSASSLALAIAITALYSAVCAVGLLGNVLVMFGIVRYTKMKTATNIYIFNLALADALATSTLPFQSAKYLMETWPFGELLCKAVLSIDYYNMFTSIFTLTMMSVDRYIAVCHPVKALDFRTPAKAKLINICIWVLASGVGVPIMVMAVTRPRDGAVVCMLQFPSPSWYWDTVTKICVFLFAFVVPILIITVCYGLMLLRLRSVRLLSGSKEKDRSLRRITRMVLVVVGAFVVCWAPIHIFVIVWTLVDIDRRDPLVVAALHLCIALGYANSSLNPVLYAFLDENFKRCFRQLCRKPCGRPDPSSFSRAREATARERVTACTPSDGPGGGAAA
T4 sequence (P41146 whole entry): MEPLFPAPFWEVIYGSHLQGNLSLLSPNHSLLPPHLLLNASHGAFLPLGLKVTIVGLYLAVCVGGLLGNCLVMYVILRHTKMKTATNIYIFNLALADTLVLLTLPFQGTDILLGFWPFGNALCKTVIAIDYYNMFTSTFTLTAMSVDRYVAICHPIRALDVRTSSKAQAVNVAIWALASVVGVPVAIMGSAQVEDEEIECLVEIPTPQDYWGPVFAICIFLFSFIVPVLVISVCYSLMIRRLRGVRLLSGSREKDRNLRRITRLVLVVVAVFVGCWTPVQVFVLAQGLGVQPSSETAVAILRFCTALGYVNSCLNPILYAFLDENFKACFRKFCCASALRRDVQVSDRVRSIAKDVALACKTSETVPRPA
T3 sequence (Q99705 whole entry): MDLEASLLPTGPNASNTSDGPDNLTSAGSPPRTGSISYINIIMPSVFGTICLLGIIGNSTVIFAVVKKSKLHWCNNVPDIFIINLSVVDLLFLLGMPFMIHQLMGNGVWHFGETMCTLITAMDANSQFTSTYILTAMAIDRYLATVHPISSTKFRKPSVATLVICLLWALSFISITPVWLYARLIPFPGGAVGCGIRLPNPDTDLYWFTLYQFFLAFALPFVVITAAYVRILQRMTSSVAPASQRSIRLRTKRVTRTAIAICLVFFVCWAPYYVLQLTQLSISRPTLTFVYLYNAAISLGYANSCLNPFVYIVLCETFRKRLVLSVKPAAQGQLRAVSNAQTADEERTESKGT
T6 sequence (P35372 whole entry): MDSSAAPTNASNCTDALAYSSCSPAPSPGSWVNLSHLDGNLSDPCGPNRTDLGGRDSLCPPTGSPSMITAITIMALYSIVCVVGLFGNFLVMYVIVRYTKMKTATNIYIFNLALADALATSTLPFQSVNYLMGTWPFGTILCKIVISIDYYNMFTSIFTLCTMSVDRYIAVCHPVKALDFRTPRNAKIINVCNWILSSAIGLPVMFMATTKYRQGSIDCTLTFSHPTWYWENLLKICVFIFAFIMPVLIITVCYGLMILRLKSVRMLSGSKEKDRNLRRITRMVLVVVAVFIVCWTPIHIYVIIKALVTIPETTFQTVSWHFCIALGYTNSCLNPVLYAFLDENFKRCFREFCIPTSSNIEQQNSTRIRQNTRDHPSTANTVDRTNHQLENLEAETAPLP
T5 sequence (P25103 whole entry): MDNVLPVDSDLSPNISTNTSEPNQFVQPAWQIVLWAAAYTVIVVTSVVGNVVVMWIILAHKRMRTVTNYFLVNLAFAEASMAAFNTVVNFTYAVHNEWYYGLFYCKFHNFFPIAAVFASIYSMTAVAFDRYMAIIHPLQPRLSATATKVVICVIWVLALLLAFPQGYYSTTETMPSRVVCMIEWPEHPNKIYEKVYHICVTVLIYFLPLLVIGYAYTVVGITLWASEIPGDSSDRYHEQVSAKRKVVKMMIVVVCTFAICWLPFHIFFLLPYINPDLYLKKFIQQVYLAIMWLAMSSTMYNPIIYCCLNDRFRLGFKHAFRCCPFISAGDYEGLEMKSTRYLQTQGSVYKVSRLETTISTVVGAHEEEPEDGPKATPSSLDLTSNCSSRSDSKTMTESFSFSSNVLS
T1 sequence (P32245 whole entry): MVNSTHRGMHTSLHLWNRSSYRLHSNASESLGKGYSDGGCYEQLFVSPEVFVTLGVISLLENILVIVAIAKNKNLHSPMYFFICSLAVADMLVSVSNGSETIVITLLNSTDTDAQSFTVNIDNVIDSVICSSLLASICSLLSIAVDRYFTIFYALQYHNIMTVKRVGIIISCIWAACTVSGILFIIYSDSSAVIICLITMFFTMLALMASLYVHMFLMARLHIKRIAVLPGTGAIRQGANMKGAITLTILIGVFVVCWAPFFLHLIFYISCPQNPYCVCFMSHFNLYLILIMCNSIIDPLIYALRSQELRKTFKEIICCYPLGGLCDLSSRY
T10 sequence (P41968 whole entry): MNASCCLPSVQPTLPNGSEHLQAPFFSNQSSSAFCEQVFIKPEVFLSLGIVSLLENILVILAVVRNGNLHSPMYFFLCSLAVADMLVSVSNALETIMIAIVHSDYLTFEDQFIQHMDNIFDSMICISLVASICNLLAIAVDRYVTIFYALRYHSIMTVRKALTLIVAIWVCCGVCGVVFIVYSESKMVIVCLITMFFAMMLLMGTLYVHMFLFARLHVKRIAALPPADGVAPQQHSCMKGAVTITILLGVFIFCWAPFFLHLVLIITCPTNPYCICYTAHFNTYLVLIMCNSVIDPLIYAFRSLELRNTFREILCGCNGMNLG

## CSC1OC(COCc2ccc(Cl)cc2)C(O)C(OCc2ccc(Cl)cc2)C1NC(=O)CNC(=N)N (stereo not drawn) [compound 270]
Human Melanocortin (MC4)
  A4: inhibition of radioligand binding: + (“+” indicates greater than 50% inhibition at 10 μM)
[1]
  A9: inhibition of radioligand binding: − (“−” indicates less than 50% inhibition at 10 μM)
[2]
  A6: inhibition of radioligand binding: − (“−” indicates less than 50% inhibition at 10 μM)
Human opioid (ORL1)
  A10: inhibition of radioligand binding: − (“−” indicates less than 50% inhibition at 10 μM)
Human neurokinin (NK1)
  A8: inhibition of radioligand binding: + (“+” indicates greater than 50% inhibition at 10 μM)
Human μ-opioid (MOP)
  A7: inhibition of radioligand binding: − (“−” indicates less than 50% inhibition at 10 μM)
Mouse urotensin (mUR2)
  A11: inhibition of radioligand binding: − (“−” indicates less than 50% inhibition at 10 μM)
Human melanocortin (MC5)
  A5: inhibition of radioligand binding: + (“+” indicates greater than 50% inhibition at 10 μM)
Human δ-opioid (DOP)
  A1: inhibition of radioligand binding: − (“−” indicates less than 50% inhibition at 10 μM)
Human Melanocortin (MC3)
  A3: inhibition of radioligand binding: + (“+” indicates greater than 50% inhibition at 10 μM)
Human κ-Opioid (KOP)
  A2: inhibition of radioligand binding: − (“−” indicates less than 50% inhibition at 10 μM)

## CSC1OC(COCc2ccc(Cl)cc2)C(O)C(OCc2ccc(Cl)cc2)C1NC(=O)CCN (stereo not drawn) [compound 271]
Human Melanocortin (MC4)
  A4: inhibition of radioligand binding: − (“−” indicates less than 50% inhibition at 10 μM)
[1]
  A9: inhibition of radioligand binding: − (“−” indicates less than 50% inhibition at 10 μM)
[2]
  A6: inhibition of radioligand binding: − (“−” indicates less than 50% inhibition at 10 μM)
Human opioid (ORL1)
  A10: inhibition of radioligand binding: − (“−” indicates less than 50% inhibition at 10 μM)
Human neurokinin (NK1)
  A8: inhibition of radioligand binding: + (“+” indicates greater than 50% inhibition at 10 μM)
Human μ-opioid (MOP)
  A7: inhibition of radioligand binding: − (“−” indicates less than 50% inhibition at 10 μM)
Mouse urotensin (mUR2)
  A11: inhibition of radioligand binding: − (“−” indicates less than 50% inhibition at 10 μM)
Human melanocortin (MC5)
  A5: inhibition of radioligand binding: − (“−” indicates less than 50% inhibition at 10 μM)
Human δ-opioid (DOP)
  A1: inhibition of radioligand binding: − (“−” indicates less than 50% inhibition at 10 μM)
Human Melanocortin (MC3)
  A3: inhibition of radioligand binding: − (“−” indicates less than 50% inhibition at 10 μM)
Human κ-Opioid (KOP)
  A2: inhibition of radioligand binding: − (“−” indicates less than 50% inhibition at 10 μM)

## CSC1O[C@H](COCc2ccc(Cl)cc2)[C@@H](O)[C@@H](OCc2ccc(Cl)cc2)[C@H]1NC(=O)CCNC(=N)N (stereo partly drawn) [compound 272]
Human Melanocortin (MC4)
  A4: inhibition of radioligand binding: + (“+” indicates greater than 50% inhibition at 10 μM)
[1]
  A9: inhibition of radioligand binding: − (“−” indicates less than 50% inhibition at 10 μM)
[2]
  A6: inhibition of radioligand binding: − (“−” indicates less than 50% inhibition at 10 μM)
Human opioid (ORL1)
  A10: inhibition of radioligand binding: − (“−” indicates less than 50% inhibition at 10 μM)
Human neurokinin (NK1)
  A8: inhibition of radioligand binding: + (“+” indicates greater than 50% inhibition at 10 μM)
Human μ-opioid (MOP)
  A7: inhibition of radioligand binding: − (“−” indicates less than 50% inhibition at 10 μM)
Mouse urotensin (mUR2)
  A11: inhibition of radioligand binding: − (“−” indicates less than 50% inhibition at 10 μM)
Human melanocortin (MC5)
  A5: inhibition of radioligand binding: + (“+” indicates greater than 50% inhibition at 10 μM)
Human δ-opioid (DOP)
  A1: inhibition of radioligand binding: − (“−” indicates less than 50% inhibition at 10 μM)
Human Melanocortin (MC3)
  A3: inhibition of radioligand binding: − (“−” indicates less than 50% inhibition at 10 μM)
Human κ-Opioid (KOP)
  A2: inhibition of radioligand binding: − (“−” indicates less than 50% inhibition at 10 μM)

## CSC1O[C@H](COCc2ccc(Cl)cc2)[C@@H](O)[C@@H](OCc2ccc(Cl)cc2)[C@H]1NC(=O)CCCN (stereo partly drawn) [compound 273]
Human Melanocortin (MC4)
  A4: inhibition of radioligand binding: − (“−” indicates less than 50% inhibition at 10 μM)
[1]
  A9: inhibition of radioligand binding: − (“−” indicates less than 50% inhibition at 10 μM)
[2]
  A6: inhibition of radioligand binding: − (“−” indicates less than 50% inhibition at 10 μM)
Human opioid (ORL1)
  A10: inhibition of radioligand binding: − (“−” indicates less than 50% inhibition at 10 μM)
Human neurokinin (NK1)
  A8: inhibition of radioligand binding: + (“+” indicates greater than 50% inhibition at 10 μM)
Human μ-opioid (MOP)
  A7: inhibition of radioligand binding: − (“−” indicates less than 50% inhibition at 10 μM)
Mouse urotensin (mUR2)
  A11: inhibition of radioligand binding: − (“−” indicates less than 50% inhibition at 10 μM)
Human melanocortin (MC5)
  A5: inhibition of radioligand binding: − (“−” indicates less than 50% inhibition at 10 μM)
Human δ-opioid (DOP)
  A1: inhibition of radioligand binding: − (“−” indicates less than 50% inhibition at 10 μM)
Human Melanocortin (MC3)
  A3: inhibition of radioligand binding: − (“−” indicates less than 50% inhibition at 10 μM)
Human κ-Opioid (KOP)
  A2: inhibition of radioligand binding: − (“−” indicates less than 50% inhibition at 10 μM)

## CSC1O[C@H](COCc2ccc(Cl)cc2)[C@@H](O)[C@@H](OCc2ccc(Cl)cc2)[C@H]1NC(=O)CCCNC(=N)N (stereo partly drawn) [compound 274]
Human Melanocortin (MC4)
  A4: inhibition of radioligand binding: − (“−” indicates less than 50% inhibition at 10 μM)
[1]
  A9: inhibition of radioligand binding: − (“−” indicates less than 50% inhibition at 10 μM)
[2]
  A6: inhibition of radioligand binding: − (“−” indicates less than 50% inhibition at 10 μM)
Human opioid (ORL1)
  A10: inhibition of radioligand binding: − (“−” indicates less than 50% inhibition at 10 μM)
Human neurokinin (NK1)
  A8: inhibition of radioligand binding: + (“+” indicates greater than 50% inhibition at 10 μM)
Human μ-opioid (MOP)
  A7: inhibition of radioligand binding: − (“−” indicates less than 50% inhibition at 10 μM)
Mouse urotensin (mUR2)
  A11: inhibition of radioligand binding: − (“−” indicates less than 50% inhibition at 10 μM)
Human melanocortin (MC5)
  A5: inhibition of radioligand binding: − (“−” indicates less than 50% inhibition at 10 μM)
Human δ-opioid (DOP)
  A1: inhibition of radioligand binding: − (“−” indicates less than 50% inhibition at 10 μM)
Human Melanocortin (MC3)
  A3: inhibition of radioligand binding: − (“−” indicates less than 50% inhibition at 10 μM)
Human κ-Opioid (KOP)
  A2: inhibition of radioligand binding: − (“−” indicates less than 50% inhibition at 10 μM)

## CSC1O[C@H](COCc2ccc(-c3ccccc3)cc2)[C@@H](O)[C@@H](OCc2ccc(Cl)cc2)[C@H]1NC(=O)CNC(=N)N (stereo partly drawn) [compound 275]
Human Melanocortin (MC4)
  A4: inhibition of radioligand binding: + (“+” indicates greater than 50% inhibition at 10 μM)
[1]
  A9: inhibition of radioligand binding: − (“−” indicates less than 50% inhibition at 10 μM)
[2]
  A6: inhibition of radioligand binding: − (“−” indicates less than 50% inhibition at 10 μM)
Human opioid (ORL1)
  A10: inhibition of radioligand binding: − (“−” indicates less than 50% inhibition at 10 μM)
Human neurokinin (NK1)
  A8: inhibition of radioligand binding: + (“+” indicates greater than 50% inhibition at 10 μM)
Human μ-opioid (MOP)
  A7: inhibition of radioligand binding: − (“−” indicates less than 50% inhibition at 10 μM)
Mouse urotensin (mUR2)
  A11: inhibition of radioligand binding: − (“−” indicates less than 50% inhibition at 10 μM)
Human melanocortin (MC5)
  A5: inhibition of radioligand binding: + (“+” indicates greater than 50% inhibition at 10 μM)
Human δ-opioid (DOP)
  A1: inhibition of radioligand binding: − (“−” indicates less than 50% inhibition at 10 μM)
Human Melanocortin (MC3)
  A3: inhibition of radioligand binding: − (“−” indicates less than 50% inhibition at 10 μM)
Human κ-Opioid (KOP)
  A2: inhibition of radioligand binding: − (“−” indicates less than 50% inhibition at 10 μM)
